Experimental data taken from ChEMBL document CHEMBL1201862, “PubChem BioAssay data set” (2004).
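Dose response: 5 concentrations. Exposure: 48 h. Format: 96-well plates. Endpoint: linear interpolation; highest concentration if not reached. GI50: concentration for 50% inhibition of growth.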 Activity calls are given as the source filed them. Cut-off read from the data, not from the text of the source: active = GI50 up to about 1.1 µM and inactive = higher.

What was measured:
Test in all cases: NCI tumour cell line growth inhibition, 48 h
DMS-114 = system: DMS-114
DMS-273 = system: DMS-273
HOP-18 = system: HOP-18
KM-20L2 = system: KM-20L2
LXFL 529 = system: LXFL 529
M19-MEL = system: M19-MEL
RXF 631 = system: RXF 631
SNB-78 = system: SNB-78
XF498 = system: XF498

SMILES	GI50 (DMS-114)	GI50 (DMS-273)	GI50 (HOP-18)	GI50 (KM-20L2)	GI50 (LXFL 529)	GI50 (M19-MEL)	GI50 (RXF 631)	GI50 (SNB-78)	GI50 (XF498)
Cc1ccc2nc3c(Cl)cc(=O)cc-3sc2c1	20.4 µM (inactive)	19.7 µM (inactive)	2.96 µM (inactive)	> 10 µM (inactive)	18.7 µM (inactive)	19.7 µM (inactive)	30.8 µM (inactive)	39.2 µM (inactive)	–
N=C(CC(=O)Nc1ccc(Cl)cc1)Nc1ccccc1	–	> 100 µM (inactive)	–	> 100 µM (inactive)	> 100 µM (inactive)	> 100 µM (inactive)	–	> 100 µM (inactive)	> 100 µM (inactive)
COc1cc2ccnc(-c3c4ccccc4c(N)c4c(OC)c(OC)ccc34)c2cc1OC	2.59 µM (inactive)	1.53 µM (inactive)	–	–	3.6 µM (inactive)	3.87 µM (inactive)	–	3.66 µM (inactive)	2.64 µM (inactive)
CC(=O)OC1(C)C(=O)OC1(C)C(C)=O (configuration not stated)	> 100 µM (inactive)	> 100 µM (inactive)	> 100 µM (inactive)	> 100 µM (inactive)	> 100 µM (inactive)	> 100 µM (inactive)	> 100 µM (inactive)	> 100 µM (inactive)	–
CCOc1ccccc1NC(=O)CSc1nnc(Cc2ccccc2)o1	17.6 µM (inactive)	22.7 µM (inactive)	20.4 µM (inactive)	38.1 µM (inactive)	16.6 µM (inactive)	34.5 µM (inactive)	–	81.5 µM (inactive)	–
CCn1c(=O)nc2n(-c3ccc(SC)cc3)c3ccccc3nc-2c1=O	69.7 µM (inactive)	71.1 µM (inactive)	> 100 µM (inactive)	40.5 µM (inactive)	> 100 µM (inactive)	30.7 µM (inactive)	> 100 µM (inactive)	> 100 µM (inactive)	–
CCOC(=O)c1ccc(-n2c(SCC)nc3sc(C)c(C)c3c2=O)cc1	> 100 µM (inactive)	> 100 µM (inactive)	> 100 µM (inactive)	> 100 µM (inactive)	–	–	–	> 100 µM (inactive)	> 100 µM (inactive)
COc1cc(C(=O)C/C(CCC(=O)Nc2ccccc2[N+](=O)[O-])=N\NC(=O)C(N)=O)ccc1O	> 100 µM (inactive)	> 100 µM (inactive)	> 100 µM (inactive)	> 100 µM (inactive)	> 100 µM (inactive)	> 100 µM (inactive)	> 100 µM (inactive)	> 100 µM (inactive)	–
Cc1cc(C)c(C(=O)c2no[n+]([O-])c2C(=O)c2c(C)cc(C)c(Br)c2C)c(C)c1Br	10.8 µM (inactive)	18.5 µM (inactive)	–	16.2 µM (inactive)	11.2 µM (inactive)	12.6 µM (inactive)	13.6 µM (inactive)	18.6 µM (inactive)	–
N=c1n(CC(=O)NC23CC4CC(CC(C4)C2)C3)c2ccccc2n1CC(=O)NC12CC3CC(CC(C3)C1)C2	1.93 µM (inactive)	1.83 µM (inactive)	2.03 µM (inactive)	1.81 µM (inactive)	2.04 µM (inactive)	1.72 µM (inactive)	–	2.91 µM (inactive)	1.52 µM (inactive)
COc1cc(C2c3cc4c(cc3[C@@H](Nc3ccc(N(C)C)cc3)[C@H]3COC(=O)C23)OCO4)cc(OC)c1O (some centres not stated)	0.42 µM (active)	0.116 µM (active)	1.85 µM (inactive)	0.708 µM (active)	2.15 µM (inactive)	0.839 µM (active)	–	4.31 µM (inactive)	0.687 µM (active)
COc1cccc(C(=O)C2C(=O)N(C)CCc3ccccc32)c1OC (configuration not stated)	> 100 µM (inactive)	> 100 µM (inactive)	> 100 µM (inactive)	> 100 µM (inactive)	> 100 µM (inactive)	> 100 µM (inactive)	> 100 µM (inactive)	–	> 100 µM (inactive)
Cc1cccc(O)c(=O)c1	5.92 µM (inactive)	7.41 µM (inactive)	> 100 µM (inactive)	22.8 µM (inactive)	29.9 µM (inactive)	43.5 µM (inactive)	–	> 100 µM (inactive)	–
CCCCCCCCCCCc1nnc(N)o1	–	> 100 µM (inactive)	–	> 100 µM (inactive)	> 100 µM (inactive)	> 100 µM (inactive)	82 µM (inactive)	> 100 µM (inactive)	> 100 µM (inactive)
CC(=O)OCC1OC(n2cccnc2=O)C(OC(C)=O)C1OC(C)=O (configuration not stated)	> 100 µM (inactive)	> 100 µM (inactive)	> 100 µM (inactive)	> 100 µM (inactive)	> 100 µM (inactive)	> 100 µM (inactive)	> 100 µM (inactive)	> 100 µM (inactive)	> 100 µM (inactive)
CCCCC1NC=Nc2c1ccc1c2[nH]c2ccccc21 (configuration not stated)	1.76 µM (inactive)	1.7 µM (inactive)	10.2 µM (inactive)	–	1.88 µM (inactive)	3.26 µM (inactive)	2.6 µM (inactive)	13 µM (inactive)	1.89 µM (inactive)
COc1ccc(-c2csc(=[N+]3CCCCC3)s2)cc1	–	3.27 µM (inactive)	5.15 µM (inactive)	2.66 µM (inactive)	3.07 µM (inactive)	2.61 µM (inactive)	–	3.58 µM (inactive)	4.05 µM (inactive)
O=c1c2cc(Br)cc(Br)c2nc(CCCl)n1-c1ccc(O)c([N+](=O)[O-])c1	19.1 µM (inactive)	21.5 µM (inactive)	16.7 µM (inactive)	–	16.1 µM (inactive)	15.9 µM (inactive)	–	32.4 µM (inactive)	–
CS(=O)(=O)NNS(=O)(=O)c1ccc(Br)cc1	> 100 µM (inactive)	> 100 µM (inactive)	> 100 µM (inactive)	> 100 µM (inactive)	> 100 µM (inactive)	> 100 µM (inactive)	–	> 100 µM (inactive)	> 100 µM (inactive)
C(=C1\CCC/C(=C/c2ccccc2)C1=NNc1ccccc1)/c1ccccc1	> 100 µM (inactive)	> 100 µM (inactive)	> 100 µM (inactive)	> 100 µM (inactive)	> 100 µM (inactive)	> 100 µM (inactive)	> 100 µM (inactive)	> 100 µM (inactive)	–
C/C(CC(=O)CCCC(=O)Nc1ccc(Cl)cc1Cl)=N/NC(=O)CC#N	> 100 µM (inactive)	> 100 µM (inactive)	> 100 µM (inactive)	> 100 µM (inactive)	> 100 µM (inactive)	> 100 µM (inactive)	> 100 µM (inactive)	> 100 µM (inactive)	> 100 µM (inactive)
O=C(O)c1ccc2c(c1)C(=O)N(c1ccc(S(=O)(=O)c3ccc(N4C(=O)c5ccc(C(=O)O)cc5C4=O)cc3)cc1)C2=O	> 100 µM (inactive)	> 100 µM (inactive)	–	> 100 µM (inactive)	> 100 µM (inactive)	> 100 µM (inactive)	–	> 100 µM (inactive)	> 100 µM (inactive)
COC(=O)CCC(=O)C(CC(=O)OC)C(=O)CCC(=O)NCCc1ccccc1 (configuration not stated)	–	> 100 µM (inactive)	> 100 µM (inactive)	> 100 µM (inactive)	> 100 µM (inactive)	–	> 100 µM (inactive)	> 100 µM (inactive)	–
CSC(C1c2ccccc2N(C)C2=NC(=O)N(C)C(=O)C21Cl)S(=O)(=O)c1ccc(C)cc1 (configuration not stated)	49.1 µM (inactive)	27.3 µM (inactive)	83.2 µM (inactive)	> 100 µM (inactive)	22.2 µM (inactive)	33.4 µM (inactive)	39.6 µM (inactive)	46.9 µM (inactive)	> 100 µM (inactive)
COP12(OC)NC(=O)OC1(C(F)(F)F)c1ccccc1O2 (configuration not stated)	> 100 µM (inactive)	> 100 µM (inactive)	52.7 µM (inactive)	–	> 100 µM (inactive)	> 100 µM (inactive)	–	> 100 µM (inactive)	> 100 µM (inactive)
CC1(C)CCCC2(C)[C@@H]1CC[C@@]13CC(=O)[C@@](C)(CC[C@@H]21)C3 (some centres not stated)	46 µM (inactive)	55.6 µM (inactive)	–	72.3 µM (inactive)	80.2 µM (inactive)	31.5 µM (inactive)	78.3 µM (inactive)	> 100 µM (inactive)	–
O=P1(c2ccccc2)CCCCC1	> 100 µM (inactive)	> 100 µM (inactive)	> 100 µM (inactive)	> 100 µM (inactive)	> 100 µM (inactive)	–	–	> 100 µM (inactive)	< 0.01 µM (active)
OC12c3ccccc3C1(N1CCOCC1)CCCCC21OCCCO1 (configuration not stated)	> 100 µM (inactive)	> 100 µM (inactive)	> 100 µM (inactive)	> 100 µM (inactive)	> 100 µM (inactive)	–	–	> 100 µM (inactive)	–
C[N+](C)=c1[nH]c2ccccc2[nH]1	> 100 µM (inactive)	> 100 µM (inactive)	> 100 µM (inactive)	> 100 µM (inactive)	> 100 µM (inactive)	> 100 µM (inactive)	–	–	–
